Laboratory results as given in patent US7384656B2, “Anti-allergy composition and related method” (Access Business Group International LLC, priority 2004, dated 2008).

How the values were obtained:
Type in all cases: cell-based
[1] = test system: LTC4 release, RBL-2H3 cells; assay: LTC4 release from IgE-sensitized, DNP-BSA stimulated RBL-2H3 cells (ELISA); details: 1 μg/ml
Method: (§1) The methodology used to obtain the results of FIG. 9 will now be described. First, RBL-2H3 cells, available from ATCC (American Type Culture Collection) of Manassas, Va., were plated in 24 well plates at 5×10^4/well. Following adherence, the cells were exposed to the ingredients or combination of ingredients noted in FIG. 9, also referred to as samples. The samples were used at the concentrations noted in Table VI. Stock solutions of all samples were prepared in a solution of DMSO, ethanol, and water present in a ratio of 5:3:2 at 100 mg/ml. Each sample was then diluted in media to the final concentration. The cells were then incubated overnight with the samples. The following day a mouse anti-dinitrophenyl (DNP) IgE antibody, available from Sigma of St. Louis, Mo., was added to the cells at a final concentration of 1 ng/ml. The cells were incubated for 1.5 hr at 37° C. to allow binding of the IgE molecule to the cellular IgE receptor via the constant region of the antibody. Following this incubation period, the cells were washed twice. A solution containing DNP conjugated to BSA (DNP-BSA), available from Calbiochem of San Diego, Calif., was added to the cells at 0.5 ng/ml. […] Next, the measured OD450 data from the ELISA was inputted into a calibration graph to determine the amount by which histamine was reduced relative to an untreated control sample. […]

[2] = test system: IgE secretion by U266 human myeloma cells; assay: IgE secretion by U266 human myeloma cells (IgE ELISA of supernatants); details: for Percent Control, IgE Secretion (IgE) (Table VIII): 100 μg/ml (no concentration printed for Formula)
Method: The methodology used to obtain the results of FIG. 3 will now be described. First, U266 human myeloma cells, available from ATCC of Manassas, Va. were plated in 96 well plates at 4×10^4/well. The cells were exposed to the sample combinations of ingredients listed in Table I, each combination referred to as a “sample.” Stock solutions of all samples were prepared in a solution of DMSO, ethanol, and water present in a ratio of 5:3:2 at 100 mg/ml. Each sample was then diluted to 100 μg/ml in media. Duplicate plates of each sample were prepared so that viability could be determined multiple times for each sample, with the results of the multiple samples averaged following treatment of the cells. The plates were incubated an additional 48 hours. Thereafter, the amount of IgE in the supernatants was measured using a conventional quantitative IgE ELISA kit available from Bethyl Laboratories of Montgomery, Tex. Next, the measured OD450 data from the IgE ELISA was inputted into a calibration graph, illustrated in FIG. 4, to determine the concentration of IgE in ng/ml in each supernatant. This calibration graph was generated by measuring the OD450 of multiple, known concentrations (in nanograms per ml) of purified IgE. As shown in the graph, the X-axis indicates the concentrations of the IgE in ng/ml; and the Y-axis indicates the OD450 derived from each of the concentrations. The line 100 connects the data points, while line 110 is a trend line corresponding to the equation in this particular embodiment of: Y=0.2909X−0.2527 Equation 1 With the IgE calibration graph, the amount of IgE for each sample was determined, and the subsequent data was input into FIG. 3 for comparative analysis.

[3] = test system: histamine release, RBL-2H3 cells; assay: Histamine release from IgE-sensitized, DNP-BSA stimulated RBL-2H3 cells (ELISA); details: for Percent Control of Histamine Release (Table VII): 10 ng/ml, in combinations each part at 10 ng/ml; for Percent Control, Histamine Release (Table VIII): 1 μg/ml
Method: The methodology used to obtain the results of FIG. 9 will now be described. First, RBL-2H3 cells, available from ATCC (American Type Culture Collection) of Manassas, Va., were plated in 24 well plates at 5×10^4/well. Following adherence, the cells were exposed to the ingredients or combination of ingredients noted in FIG. 9, also referred to as samples. The samples were used at the concentrations noted in Table VI. Stock solutions of all samples were prepared in a solution of DMSO, ethanol, and water present in a ratio of 5:3:2 at 100 mg/ml. Each sample was then diluted in media to the final concentration. The cells were then incubated overnight with the samples. The following day a mouse anti-dinitrophenyl (DNP) IgE antibody, available from Sigma of St. Louis, Mo., was added to the cells at a final concentration of 1 ng/ml. The cells were incubated for 1.5 hr at 37° C. to allow binding of the IgE molecule to the cellular IgE receptor via the constant region of the antibody. Following this incubation period, the cells were washed twice. A solution containing DNP conjugated to BSA (DNP-BSA), available from Calbiochem of San Diego, Calif., was added to the cells at 0.5 ng/ml. The cells were incubated an additional 1 hr at 37° C. The supernatants were assayed for the presence of histamine, PGD2 and/or LTC4 using ELISA kits commercially available from Cayman Chemical of Ann Arbor, Mich. according to the manufacturer's specifications. Next, the measured OD450 data from the ELISA was inputted into a calibration graph to determine the amount by which histamine was reduced relative to an untreated control sample. An example of a histamine calibration graph is illustrated in FIG. 10. Suffice it to say that calibration graphs for PGD2 and LTC4 are similar. The calibration graph in FIG. 10 was generated by measuring the OD450 of multiple, known concentrations of purified histamine. As shown in the graph, the X-axis indicates the concentrations of the histamine in nanomolar; and the Y-axis indicates the OD450 derived from each of the concentrations. The line 120 connects the data points, while line 130 is a trend line corresponding to the equation in this particular embodiment of: Y=−0.0025X^2+0.2915X+2.0775 Equation 2 With the histamine calibration graph, the amount of histamine for each sample was determined, and the subsequent data was input into Table VI and FIG. 9 for comparative analysis.

[4] = test system: PGD2 release, RBL-2H3 cells; assay: PGD2 release from IgE-sensitized, DNP-BSA stimulated RBL-2H3 cells (ELISA); details: 10 μg/ml
Method: as §1

[5] = listed as Luteolin from Perilla seed

`O=c1cc(-c2ccc(O)c(O)c2)oc2cc(O)cc(O)c12` [Luteolin] was tested, and the “Percent Control LTC4 Release (Table VI)” value [1] was 157%, the “Percent Control, IgE Secretion (IgE) (Table VIII)” value [2] was “about 95%” and the “Percent Control, IgE Secretion (IgE) (Table VIII)” value [2, 5] was 95.5%. The “Percent Control IgE-Secretion (Table V)” value ([2]; 100 μg/ml, relative to untreated control cells) was 53%, the “Percent Control of Histamine Release (Table VII)” value (shortened to “Percent Control … (Table VII)”) [3] was 88.1% and the “Percent Control … (Table VII)” value ([3]; listed as luteolin) was “about 88%”. For the same compound, the “Percent Control … (Table VII)” value ([3]; listed as luteolin from Perilla leaf) was “about 88%”, the “Percent Control of Histamine Release (Table VI)” value ([3]; 100 ng/ml) was 10% and the “Percent Control, Histamine Release (Table VIII)” value [3] was “about 100%”. For the same compound, the “Percent Control, Histamine Release (Table VIII)” value [3, 5] was 99.9% and the “Percent Control of PGD2 Release (Table VI)” value [4] was 68%.
